9 compounds from PMC10935098 (Molecules, 2024) can be followed below.

Values after ≈ are worked out from the molar mass of the structure shown. Where a SMILES comes first, the peptide text is derived from it. Bridges are numbered along the chain shown (N, C = ends). [ ]: non-standard residue; d: D form.

Data set [1] has as its system Candida tropicalis (BNCC340288). The following applies: BNCC340288, 24 h.
Data set [2] deals with Candida parapsilosis (BNCC336015). To be noted: BNCC336015, 24 h.
The test system of data set [3] is Bacillus subtilis (BNCC109047). The following applies: BNCC109047, 24 h.
Data set [4] deals with Escherichia coli (BNCC336902). To be noted: BNCC336902, 24 h.
A further data set concerns trypsin. To be noted: pH 6.8.
In data set [5] the test system is erythrocytes of C57BL/6 mice. The following applies: 128 µM.
A short description of another data set: in vitro. To be noted: serum.
Data set [6] deals with Candida tropicalis. Format: cell-based.
Data set [7] relates to Candida tropicalis. It is filed as cell-based. The source holds these as a separate data set.
For data set [8], the system named is human hepatocytes (THLE-3).
A further data set deals with C57BL/6 mice. The following applies: mouse, ip, 10 mg/kg.
In another data set the test system is Bacillus subtilis. Format: cell-based.

In general, share remaining refers to the share of the starting amount still present when the sample was taken. Lower therefore signals a greater loss.

As to `CC(C)C[C@@H]1NC(=O)[C@@H]2CSSC[C@@H](C(N)=O)NC(=O)[C@@H](CCCCN)NC(=O)[C@H](Cc3ccc(O)cc3)NC(=O)[C@@H](CCCCN)NC(=O)[C@H](CSSC[C@H](NC(=O)CN)C(=O)N2)NC(=O)[C@@H](CCCCN)NC(=O)[C@H](CC(C)C)NC(=O)[C@@H](CCCCN)NC1=O` [Pep 1] (H-GCCL[dK]L[dK]C[dK]Y[dK]C-NH2; disulfide 2-8, 3-12), in [1], the “MIC, C. tropical” value is above 64 µM. The “MIC, C. parapsilosis” value in data set [2] was above 64 µM. For the same compound, the “MIC, B. subtilis” value in data set [3] was above 64 µM. Moreover, the “MIC, E. coli” value in [4] was above 64 µM.
On to `CC(C)C[C@@H]1NC(=O)[C@@H]2CSSC[C@@H](C(N)=O)NC(=O)[C@@H](CCCCN)NC(=O)[C@H](CC(C)C)NC(=O)[C@@H](CCCCN)NC(=O)[C@H](CC(C)C)NC(=O)[C@@H](CCCCN)NC(=O)[C@H](CSSC[C@H](NC(=O)[C@@H](N)CC(C)C)C(=O)N2)NC(=O)[C@@H](CCCCN)NC1=O` [Pep 5] (H-LCCL[dK]C[dK]L[dK]L[dK]C-NH2; disulfide 2-6, 3-12), for which the “MIC, C. tropical” value in data set [1] worked out at 64 µM (≈ 89 µg/mL). Besides, the “MIC, C. parapsilosis” value in data set [2] was 128 µM (≈ 178 µg/mL). Besides, in data set [3], the “MIC, B. subtilis” value was found to be 128 µM (≈ 178 µg/mL). Besides, the “MIC, E. coli” value in data set [4] was 32 µM (≈ 44.5 µg/mL). In addition, in the data set on trypsin, the “Stability in SIF” value is reported as “remained almost entirely intact after 24 h”. Further, in [5], the “Hemolysis” value is “less than 5%”. Further, the share remaining at 4 h in the data set “in vitro” worked out at 20%.
`CC(C)C[C@@H]1NC(=O)[C@@H](CCCCN)NC(=O)[C@@H]2CSSC[C@H](NC(=O)[C@H](CC(C)C)NC(=O)[C@@H](CCCCN)NC(=O)[C@@H](CCCCN)NC(=O)[C@@H](N)CC(C)C)C(=O)N[C@@H](CSSC[C@@H](C(N)=O)NC(=O)[C@@H](CCCCN)NC1=O)C(=O)N[C@H](CCCCN)C(=O)N2` [Pep 6] (H-L[dK][dK]LCC[dK]C[dK]L[dK]C-NH2; disulfide 5-8, 6-12): the “Effect on growth of Candida tropicalis (growth curve)” value in the data set on Candida tropicalis [6] is reported as “inhibitory effects”. In the data set with Candida tropicalis [7], the “Bactericidal effect on Candida tropicalis” value is “significant bactericidal effect”, the “Fungal counts after 60 min” value was 1 × 10^3 cfu/mL and the “Reduction of fungal counts” value is listed as “over 1000 fold”. Also, the “MIC, C. tropical” value in data set [1] was found to be 8 µM (≈ 11.2 µg/mL). Besides, the “MIC, C. parapsilosis” value in data set [2] came to 32 µM (≈ 45 µg/mL). Also, the “MIC, B. subtilis” value in data set [3] is 64 µM (≈ 90 µg/mL). Also, the “MIC, E. coli” value in data set [4] was determined as 128 µM (≈ 180 µg/mL). Further, in the data set on trypsin, the “Stability in SIF” value is “remained almost entirely intact after 24 h”. Also, the “Hemolysis” value in data set [5] is “less than 5%”. For the same compound, in data set [8], the “Toxicity on human hepatocyte THLE-3” value is recorded as “little or no toxicity”. Also, in the data set with C57BL/6 mice (in vivo), the Body weight change result was “no significant changes”. The share remaining at 4 h in the data set “in vitro” is 20%.
Take `CC(C)C[C@@H]1NC(=O)[C@@H]2CSSC[C@@H](C(N)=O)NC(=O)[C@@H](CCCCN)NC(=O)[C@H](CC(C)C)NC(=O)[C@@H](CCCCN)NC(=O)[C@H](CSSC[C@H](NC(=O)[C@@H](N)CC(C)C)C(=O)N2)NC(=O)[C@@H](CCCCN)NC(=O)[C@H](CC(C)C)NC(=O)[C@@H](CCCCN)NC1=O` [Pep 3] (H-LCCL[dK]L[dK]C[dK]L[dK]C-NH2; disulfide 2-8, 3-12): the “MIC, C. tropical” value in data set [1] is above 64 µM. Besides, the “MIC, C. parapsilosis” value in data set [2] was above 64 µM. In addition, the “MIC, B. subtilis” value in data set [3] is above 64 µM. For the same compound, the “MIC, E. coli” value in [4] is above 64 µM.
As to `CC(C)C[C@@H]1NC(=O)[C@H](CCCCN)NC(=O)[C@@H]2CSSC[C@H](NC(=O)[C@H](CC(C)C)NC(=O)[C@H](CCCCN)NC(=O)[C@H](CCCCN)NC(=O)[C@@H](N)CC(C)C)C(=O)N[C@@H](CSSC[C@@H](C(N)=O)NC(=O)[C@H](CCCCN)NC1=O)C(=O)N[C@@H](CCCCN)C(=O)N2` [Pep 9] (H-LKKLCCKCKLKC-NH2; disulfide 5-8, 6-12), the “Effect on growth of Candida tropicalis (growth curve)” value in the data set with Candida tropicalis [6] is reported as “inhibitory effects”. In the data set on Candida tropicalis [7], the “Fungal counts after 60 min” value is reported as 1 × 10^3 cfu/mL and the “Reduction of fungal counts” value is recorded as “over 1000 fold”. Moreover, the “MIC, C. tropical” value in [1] was 16 µM (≈ 22.5 µg/mL). Besides, the “MIC, C. parapsilosis” value in data set [2] came out at 16 µM (≈ 22.5 µg/mL). Also, the “MIC, B. subtilis” value in [3] worked out at 128 µM (≈ 180 µg/mL). Also, the “MIC, E. coli” value in [4] is above 128 µM. Also, the “Stability in SIF” value in the data set with trypsin is “nearly fully degraded within one hour”. In data set [8], the “Toxicity on human hepatocyte THLE-3” value was “little or no toxicity”.
Turning to `CC(C)C[C@@H]1NC(=O)[C@H](CCCCN)NC(=O)[C@H](CC(C)C)NC(=O)[C@H](CCCCN)NC(=O)[C@@H]2CSSC[C@H](NC(=O)[C@@H](N)CC(C)C)C(=O)N[C@@H](CSSC[C@@H](C(N)=O)NC(=O)[C@H](CCCCN)NC1=O)C(=O)N[C@@H](CC(C)C)C(=O)N[C@@H](CCCCN)C(=O)N2` [Pep 7] (H-LCCLKCKLKLKC-NH2; disulfide 2-6, 3-12), the “MIC, C. tropical” value in data set [1] amounted to 64 µM (≈ 89 µg/mL). For the same compound, in [2], the “MIC, C. parapsilosis” value was 64 µM (≈ 89 µg/mL). In addition, the “MIC, B. subtilis” value in [3] turned out to be 64 µM (≈ 89 µg/mL). The “MIC, E. coli” value in data set [4] was above 128 µM. The “Stability in SIF” value in the data set on trypsin is reported as “nearly fully degraded within one hour”.
In the case of `CC(C)C[C@@H]1NC(=O)[C@@H]2CSSC[C@@H](C(N)=O)NC(=O)[C@@H](CCCCN)NC(=O)[C@H](Cc3c[nH]c4ccccc34)NC(=O)[C@@H](CCCCN)NC(=O)[C@H](CSSC[C@H](NC(=O)[C@@H](N)CC(C)C)C(=O)N2)NC(=O)[C@@H](CCCCN)NC(=O)[C@H](CC(C)C)NC(=O)[C@@H](CCCCN)NC1=O` [Pep 2] (H-LCCL[dK]L[dK]C[dK]W[dK]C-NH2; disulfide 2-8, 3-12), in data set [1], the “MIC, C. tropical” value was above 64 µM. Besides, the “MIC, C. parapsilosis” value in data set [2] is above 64 µM. The “MIC, B. subtilis” value in [3] is above 64 µM. The “MIC, E. coli” value in [4] was above 64 µM.
In the case of `CC(C)C[C@@H]1NC(=O)[C@@H]2CSSC[C@@H](C(N)=O)NC(=O)[C@@H](CCCNC(=N)N)NC(=O)[C@H](CC(C)C)NC(=O)[C@@H](CCCCN)NC(=O)[C@H](CC(C)C)NC(=O)[C@@H](CCCNC(=N)N)NC(=O)[C@H](CSSC[C@H](NC(=O)[C@@H](N)CC(C)C)C(=O)N2)NC(=O)[C@@H](CCCNC(=N)N)NC1=O` [Pep 8] (H-LCCL[dR]C[dR]L[dK]L[dR]C-NH2; disulfide 2-6, 3-12), the “Effect on growth of Candida tropicalis (growth curve)” value in the data set on Candida tropicalis [6] is listed as “inhibitory effects”. Besides, the “Effect on growth of Bacillus subtilis (growth curve)” value with Bacillus subtilis is reported as “inhibitory effects”. In the data set with Candida tropicalis [7], the “Bactericidal effect on Candida tropicalis” value is “significant bactericidal effect”, the “Fungal counts after 60 min” value is recorded as 1 × 10^3 cfu/mL and the “Reduction of fungal counts” value is “over 1000 fold”. The “MIC, C. tropical” value in data set [1] was determined as 8 µM (≈ 11.8 µg/mL). In addition, the “MIC, C. parapsilosis” value in data set [2] was determined as 8 µM (≈ 11.8 µg/mL). Moreover, the “MIC, B. subtilis” value in [3] was found to be 16 µM (≈ 23.6 µg/mL). Moreover, in [4], the “MIC, E. coli” value worked out at 128 µM (≈ 189 µg/mL). For the same compound, in the data set with trypsin, the “Stability in SIF” value is reported as “remained almost entirely intact after 24 h”. Also, in data set [5], the “Hemolysis” value is “less than 5%”. Also, the “Cytotoxicity on human hepatocyte THLE-3” value in data set [8] is listed as “remarkable cytotoxicity”. Moreover, the “In vivo safety in mice” value with C57BL/6 mice is “favorable safety”. Also, the share remaining at 4 h in the data set “in vitro” was found to be 20%.
As for `CC(C)C[C@@H]1NC(=O)[C@@H]2CSSC[C@@H](C(N)=O)NC(=O)[C@@H](CCCCN)NC(=O)[C@H](CC(C)C)NC(=O)[C@@H](CCCCN)NC(=O)[C@H](CSSC[C@H](NC(=O)[C@@H](N)CC(C)C)C(=O)N2)NC(=O)[C@H](C)NC(=O)[C@@H](CCCCN)NC(=O)[C@H](CC(C)C)NC(=O)[C@@H](CCCCN)NC1=O` [Pep 4] (H-LCCL[dK]L[dK]AC[dK]L[dK]C-NH2; disulfide 2-9, 3-13), in [1], the “MIC, C. tropical” value is above 64 µM. The “MIC, C. parapsilosis” value in data set [2] is above 64 µM. The “MIC, B. subtilis” value in [3] is above 64 µM. Moreover, the “MIC, E. coli” value in data set [4] is above 64 µM.
